# Data as given in US20080200442A1, “Compositions and Methods for Treating, Reducing, Ameliorating, or Preventing Infections of the Ear or Upper Respiratory Tract” (priority 2007, published 2008).
# Legend:
# Type in all cases: cell-based
# [1] = tested on: Veillonella parvula (GAI 5602); assay: In vitro anti-bacterial activity (MIC90), anaerobic reference bacteria
# [2] = tested on: Peptostreptococcus micros (GIFU 7824); assay: as above; settings: Parvimonas micra
# [3] = tested on: Bacteroides vulgatus (GAI 0673); assay: as above; settings: Phocaeicola vulgatus
# [4] = tested on: Staphylococcus aureus (No. 420); assay: In vitro anti-bacterial activity (MIC90), methicillin-resistant Staphylococcus aureus isolates; settings: methicillin-resistant Staphylococcus aureus (No. 420)
# Procedure: (§1) Anti-bacterial activity of the compound having Formula III was tested against several Gram-negative reference bacteria strains and compared to the anti-bacterial activity of three commercially available antibiotics (nadifloxacin, ofloxacin, and sparfloxacin). The results are shown in Table 2 as MIC90 values (minimum concentration of the active compound required to inhibit ninety percent of the growth of a specified pathogen, in μg/ml).
# (§2) Anti-bacterial activity of the compound having Formula III was tested against some methicillin-resistant Staphylococcus aureus bacteria strains and compared to the anti-bacterial activity of three commercially available antibiotics (nadifloxacin, ofloxacin, and sparfloxacin).
# [5] = tested on: Staphylococcus aureus (No. 419); assay: as above; settings: methicillin-resistant Staphylococcus aureus (No. 419)
# Procedure: as §1, §2
# [6] = tested on: Staphylococcus aureus (ATCC 33592); assay: as above; settings: ATCC33592; methicillin-resistant Staphylococcus aureus (ATCC 33592)
# Procedure: as §1, §2
# [7] = tested on: Staphylococcus aureus (ATCC 33593); assay: as above; settings: ATCC33593; methicillin-resistant Staphylococcus aureus (ATCC 33593)
# Procedure: as §1, §2
# [8] = tested on: Staphylococcus aureus (No. 395); assay: as above; settings: methicillin-resistant Staphylococcus aureus (No. 395)
# Procedure: as §1, §2
# [9] = tested on: Staphylococcus aureus (No. 421); assay: as above; settings: methicillin-resistant Staphylococcus aureus (No. 421)
# Procedure: as §1, §2
# [10] = tested on: Staphylococcus aureus (No. 415); assay: as above; settings: methicillin-resistant Staphylococcus aureus (No. 415)
# Procedure: as §1, §2
# [11] = tested on: Staphylococcus aureus (ATCC 33591); assay: as above; settings: ATCC33591; methicillin-resistant Staphylococcus aureus (ATCC 33591)
# Procedure: as §1, §2
# [12] = tested on: Streptococcus pneumoniae (IID 553); assay: In vitro anti-bacterial activity (MIC90), Gram-positive reference strains; settings: IID553
# Procedure: as §1, with “μg/ml). Anti-bacterial activity of the compound having Formula III was tested against several Gram-positive reference bacteria strains and compared to the anti-bacterial activity of three commercially available antibiotics (nadifloxacin, ofloxacin, and sparfloxacin).” for “μg/ml).”
# [13] = tested on: Streptococcus pyogenes (IID 698); assay: as above; settings: IID698
# Procedure: as §1, with “μg/ml). Anti-bacterial activity of the compound having Formula III was tested against several Gram-positive reference bacteria strains and compared to the anti-bacterial activity of three commercially available antibiotics (nadifloxacin, ofloxacin, and sparfloxacin).” for “μg/ml).”
# [14] = tested on: Sarcina lutea (ATCC 9341); assay: as above; settings: Micrococcus luteus, ATCC9341
# Procedure: as §1, with “μg/ml). Anti-bacterial activity of the compound having Formula III was tested against several Gram-positive reference bacteria strains and compared to the anti-bacterial activity of three commercially available antibiotics (nadifloxacin, ofloxacin, and sparfloxacin).” for “μg/ml).”
# [15] = tested on: Streptococcus faecalis (ATCC 29212); assay: as above; settings: Enterococcus faecalis, ATCC29212
# Procedure: as §1, with “μg/ml). Anti-bacterial activity of the compound having Formula III was tested against several Gram-positive reference bacteria strains and compared to the anti-bacterial activity of three commercially available antibiotics (nadifloxacin, ofloxacin, and sparfloxacin).” for “μg/ml).”
# [16] = tested on: Streptococcus pneniae (IID 554); assay: as above; settings: IID554
# Procedure: as §1, with “μg/ml). Anti-bacterial activity of the compound having Formula III was tested against several Gram-positive reference bacteria strains and compared to the anti-bacterial activity of three commercially available antibiotics (nadifloxacin, ofloxacin, and sparfloxacin).” for “μg/ml).”
# [17] = tested on: Streptococcus faecalis (IFO 12964); assay: as above; settings: Enterococcus faecalis, IFO12964
# Procedure: as §1, with “μg/ml). Anti-bacterial activity of the compound having Formula III was tested against several Gram-positive reference bacteria strains and compared to the anti-bacterial activity of three commercially available antibiotics (nadifloxacin, ofloxacin, and sparfloxacin).” for “μg/ml).”
# [18] = tested on: Staphylococcus aureus (ATCC 25933); assay: as above; settings: ATCC25933
# Procedure: as §1, with “μg/ml). Anti-bacterial activity of the compound having Formula III was tested against several Gram-positive reference bacteria strains and compared to the anti-bacterial activity of three commercially available antibiotics (nadifloxacin, ofloxacin, and sparfloxacin).” for “μg/ml).”
# [19] = tested on: Staphylococcus epidermidis (ATCC 12228); assay: as above; settings: ATCC12228
# Procedure: as §1, with “μg/ml). Anti-bacterial activity of the compound having Formula III was tested against several Gram-positive reference bacteria strains and compared to the anti-bacterial activity of three commercially available antibiotics (nadifloxacin, ofloxacin, and sparfloxacin).” for “μg/ml).”
# [20] = tested on: Bacillis subtilis (ATCC 6633); assay: as above
# Procedure: as §1, with “μg/ml). Anti-bacterial activity of the compound having Formula III was tested against several Gram-positive reference bacteria strains and compared to the anti-bacterial activity of three commercially available antibiotics (nadifloxacin, ofloxacin, and sparfloxacin).” for “μg/ml).”
# [21] = tested on: Staphylococcus aureus (Smith); assay: as above
# Procedure: as §1, with “μg/ml). Anti-bacterial activity of the compound having Formula III was tested against several Gram-positive reference bacteria strains and compared to the anti-bacterial activity of three commercially available antibiotics (nadifloxacin, ofloxacin, and sparfloxacin).” for “μg/ml).”
# [22] = tested on: Staphylococcus aureus (FDA 209P); assay: as above; settings: FDA209P
# Procedure: as §1, with “μg/ml). Anti-bacterial activity of the compound having Formula III was tested against several Gram-positive reference bacteria strains and compared to the anti-bacterial activity of three commercially available antibiotics (nadifloxacin, ofloxacin, and sparfloxacin).” for “μg/ml).”
# [23] = tested on: Streptococcus pyogenes (Cook); assay: as above
# Procedure: as §1, with “μg/ml). Anti-bacterial activity of the compound having Formula III was tested against several Gram-positive reference bacteria strains and compared to the anti-bacterial activity of three commercially available antibiotics (nadifloxacin, ofloxacin, and sparfloxacin).” for “μg/ml).”
# [24] = tested on: Clostridium perfringens (KZ 210); assay: microbe, parasite or virus in culture
# [25] = tested on: Peptostreptococcus magnum (GAI 0664); assay: In vitro anti-bacterial activity (MIC90), anaerobic reference bacteria
# [26] = tested on: Propionibacterium acnes (ATCC 6919); assay: as above; settings: Cutibacterium acnes, ATCC6919
# [27] = tested on: Bacteroides thetaiotaomicron (GAI 0659); assay: as above; settings: Bacteroides thetaiotaomicron
# [28] = tested on: Propionibacterium acnes (GAI 5419); assay: as above; settings: Cutibacterium acnes
# [29] = tested on: Bacteroides fragillis (GAI 0675); assay: as above
# [30] = tested on: Propionibacterium acnes (ATCC 11828); assay: as above; settings: Cutibacterium acnes, ATCC11828
# [31] = tested on: Salmonella typhimurium (TD); assay: In vitro anti-bacterial activity (MIC90), Gram-negative reference strains
# Procedure: Anti-bacterial activity of the compound having Formula III was tested against several Gram-negative reference bacteria strains and compared to the anti-bacterial activity of three commercially available antibiotics (nadifloxacin, ofloxacin, and sparfloxacin).
Compound,MIC90 [1],MIC90 [2],MIC90 [3],MIC90 [4],MIC90 [5],MIC90 [6],MIC90 [7],MIC90 [8],MIC90 [9],MIC90 [10],MIC90 [11],MIC90 [12],MIC90 [13],MIC90 [14],MIC90 [15],MIC90 [16],MIC90 [17],MIC90 [18],MIC90 [19],MIC90 [20],other results
CC1CCc2c(N3CCC(O)CC3)c(F)cc3c(=O)c(C(=O)O)cn1c23 (centres unmarked) [Nadifloxacin],0.78 µg/mL,0.39 µg/mL,0.78 µg/mL,0.78 µg/mL,0.39 µg/mL,0.05 µg/mL,0.024 µg/mL,0.024 µg/mL,0.78 µg/mL,0.1 µg/mL,0.006 µg/mL,0.78 µg/mL,0.1 µg/mL,0.39 µg/mL,0.78 µg/mL,0.78 µg/mL,0.78 µg/mL,0.05 µg/mL,0.1 µg/mL,0.006 µg/mL,MIC90 [21]: 0.024 µg/mL; MIC90 [22]: 0.024 µg/mL; MIC90 [23]: 0.78 µg/mL; MIC90 [24]: 0.2 µg/mL; MIC90 [25]: 0.2 µg/mL; MIC90 [26]: 0.2 µg/mL; MIC90 [27]: 1.56 µg/mL; MIC90 [28]: 0.2 µg/mL; MIC90 [29]: 1.56 µg/mL; MIC90 [30]: 0.78 µg/mL; MIC90 [31]: 0.2 mμg/mL
C[C@@H]1CN(c2c(F)c(N)c3c(=O)c(C(=O)O)cn(C4CC4)c3c2F)C[C@H](C)N1 [Sparfloxacin],0.2 µg/mL,0.78 µg/mL,0.78 µg/mL,0.78 µg/mL,1.56 µg/mL,0.1 µg/mL,0.024 µg/mL,0.05 µg/mL,0.39 µg/mL,0.2 µg/mL,0.024 µg/mL,0.39 µg/mL,0.2 µg/mL,1.56 µg/mL,0.39 µg/mL,0.39 µg/mL,0.78 µg/mL,0.1 µg/mL,0.2 µg/mL,0.024 µg/mL,MIC90 [21]: 0.05 µg/mL; MIC90 [22]: 0.024 µg/mL; MIC90 [23]: 0.39 µg/mL; MIC90 [24]: 0.39 µg/mL; MIC90 [25]: 0.1 µg/mL; MIC90 [26]: 0.39 µg/mL; MIC90 [27]: 0.78 µg/mL; MIC90 [28]: 0.39 µg/mL; MIC90 [29]: 0.78 µg/mL; MIC90 [30]: 0.78 µg/mL; MIC90 [31]: 0.012 mμg/mL
